From US20020127228A1, “PGT and apoptosis” (WELFIDE CORPORATION, priority 1998, published 2002)

Key:
NRK52E cells [1] = test: Apoptosis induced by NO donor NOC12 in NRK52E kidney cells; type: cell-based, rat; conditions: NOC12 0.4 mM, 24 hrs, n 5
Procedure: (§1) 1) Apoptosis was induced by NO (nitrogen monoxide) in kidney cells. NRK52E cells, which are established from a rat renal tubule epithelial cell line, mainly derived from distal were cultured for 24 hours with a chamber slide that was coated with type-I collagen. Afterwards, the cultured medium was changed to a serum-free medium, and apoptosis was induced by addition of NOC12 (0.4 mM) or S-nitroso L-glutathione (GSNO: 1 mM), which are NO donors.
(§2) 4) Inhibitory effect of PGE1 to the induction of apoptosis in kidney cells was investigated PGE1 was added simultaneously with the addition of a NO donor to a final concentration of 1 or 10 μM. After 24 hrs, cells were fixed with a 1% glutaraldehyde solution and stained with Hoechst 33342. Three visual fields were selected arbitrarily per slide, and the ratio of the cells count where nuclear fragmentation and condensation appeared was calculated with respect to the total cells in the field (magnification: 400x). The n was 5.

[2] = tested on: differentiated PC12 cells; test: Suppression of apoptosis in differentiated PC12 cells after NGF withdrawal, Hoechst 33342 staining; type: cell-based, rat; conditions: for Incidence of apoptosis (%): 24 hrs, NGF withdrawal, mean ± SEM
Procedure: (§3) (1) After growing rat adrenal pheochromocytoma PC12 cells (obtained by: ATCC; importer: Dainippon Pharmaceutical) with RPMI1640 containing 10 ml/l heat-inactivated horse serum and 5 ml/l heat-inactivated fetal calf serum, culturing was performed with RPMI1640 containing mouse β NGF (100 ng/ml), N2 supplement, and TIP (5 μg/ml transferrin, 5 μg/ml insulin, and 10 ng/ml progesterone). Differentiation to neuron-like cells was performed.
(§4) (2) Differentiated PC12 cells were washed with Neurobasal culture medium. After replacing the culture medium with RPMI1640 not containing β NGF, N2 supplement, and TIP, mouse β NGF antibodies (final concentration: 50 ng/ml) were added. By culturing for 24 hrs, apoptosis was induced.
(3) A PGE1 ethanol solution was added (final concentration:
(§5) 0.01-1 μM) to fresh culture medium during medium replacement and culturing was performed for the same amount of time. As a negative control, a solvent (ethanol) alone was added in the same manner and culturing was performed for the same period of time. Apoptosis detection was performed by Hoechst 33342 staining (at 1 mM with a reaction in 2 minutes at room temperature) after fixation (room temperature for 30 mins) of cells with a 1% glutaraldehyde solution. Observation was made from 5 arbitrary visual fields using a fluorescence microscope. Total cell and apoptotic cells were counted, and incident of apoptosis was calculated.
(4) The values obtained were expressed as means±SEM. As for statistical analysis, a student's t-test (hereafter noted as a t-test) was used for two groups and Dunnet's test was used after one-way layout dimensional analysis (one-way ANOVA) for numerous groups; critical values for both were considered to be a significant difference below 5%.

[3] = tested on: differentiated PC12 cells; test: Suppression of apoptosis in differentiated PC12 cells after NGF withdrawal, TUNEL staining; type: cell-based, rat; conditions: for TUNEL-positive cells (%): NGF withdrawal
Procedure: as §3, §4, §5
As regards the apoptosis-suppressing activity of PGE1 in nerve neurons, the manners other than TUNEL staining for detection of apoptosis were in accordance with ones in Experiment 1. The results are indicated in Table2.

[4] = Hypotensive effect in anesthetized normal rats, mean blood pressure; type: in vivo, rat; set-up: Decrease in blood pressure: unit not given here; conditions: 100 μg/kg body weight into caudal artery, mean blood pressure before and after, n 3
Procedure: 2) The hypotensive effect of the test drugs was examined. After anesthetizing normal rats (male, body weight of about 300 g) with intraperitoneal administration of Nembutal, the dorsal region was fixed. Next, a cannula was inserted in the carotid artery and blood pressure was measured through a transducer (Nihon Kohden Corporation); simultaneous recording was made in combination with a polygraph (Nihon Kohden Corporation). After dissolving the test drugs in ethanol, and diluted (x200) with saline. Administration was given in the caudal artery in a dose of 100 μg/kg body weight. The mean blood pressure (MBP) was measured. The decrease in blood pressure was calculated from the measured values before and after administration. The n was 3 per group.

NRK52E cells [5] = test: Apoptosis induced by NO donor GSNO in NRK52E kidney cells; type: cell-based, rat
Procedure: as §1, §2
5) The relationship between PGT inhibitors and kidney cell apoptosis induced by GSNO was examined. With a final concentration of BrCG, which is a PGT inhibitor, of 60 μM, manners other than simultaneous addition with GSNO and PGE1 were in accordance with the aforementioned ones in 4). The PGE1 final concentration was 1 μM. The n was 3.
1) Drugs having suppressing activity on apoptosis inducted in kidney cells by an NO donor were investigated. PGK1 and bicyclo PGE2 were used as test drugs, but other manners were in accordance with Experiment 8. The final concentration of the test drugs was 1 μM. The n was 5.
2) It was investigated the effects of a PGT inhibitor on the apoptosis-suppressing activity of PGK1 and bicyclo PGE2 in kidney cells. With a final concentration of BrCG, which is a PGT inhibitor, of 60 μM, manners other than simultaneous addition of GSNO and test drugs were in accordance with the aforementioned methods in 1). The n was 4.

SAPK/JNK = SAPK/JNK activation in PC12 cells after NGF withdrawal, Western blot; type: cell-based, rat; set-up: key to Degree of luminescence: +++ is extremely strong; + is confirmed luminescence; ± is poor luminescence; conditions: for Degree of luminescence: phosphorylated JNK band
Procedure: 4) Intercellular signals via SAPK/JNK Stress-activated protein kinase/Jun N-terminal kinase (abbreviated SAPK/JNK) is associated with apoptosis induction. Thus, intercellular signals within cells via SAPK/JNK were investigated based upon effects with respect to variations in SAPK/JNK activity.
The present experiment was performed with Western blot analysis. Individual additives were added to cell culturing medium for PC12 cells in accordance with the aforementioned experiment. Culturing was performed for 1-4 hrs after withdrawal of NGF. PC12 cells were lysed with a buffer solution, centrifuged, and the supernatant of cell lysate was prepared. After said supernatant was incubated with JNK 1 polyclonal antibodies (Santa Cruz Biotechnology) at 4° C. for 1 hr. Protein A sepharose was added to it. The resultant was incubated for 1 hr and the immunoprecipitate as described below was provided. […] of cell lysate was conducted with SDS-PAGE electrophoresis, and transferred to a nylon membrane (Amersham Pharmacia Biotech). Blotting of phosphorylated (active) JNK antibodies (Santa Cruz Biotechnology) was performed with this membrane, and bands were detected in accordance with the instruction manual. Intercellular signals within cells were amplified by chemiluminescence and auto radioactivity methods (FCL, Amersham Pharmacia Biotech).

SMILES: CCCCC[C@H](O)/C=C/[C@H]1[C@H](O)CC(=O)[C@@H]1CCCCCCC(=O)O [PGE1, prostaglandin E1]
- Incidence of apoptosis (%) (NRK52E cells [1]; PGE1 1 μM): 11 ± 2 %
- Incidence of apoptosis (%) (NRK52E cells [1]; PGE1 10 μM): 6 ± 1 %
- Incidence of apoptosis (%) ([2]; PGE1 0.01 μM): 21.3 ± 1.5%
- Incidence of apoptosis (%) ([2]; PGE1 0.1 μM): 19.1 ± 8.1%
- Effect on cell apoptosis (in words) ([2]; PGE1 1 μM): suppressed cell apoptosis
- Incidence of apoptosis (%) ([2]; PGE1 1 μM): 17.1 ± 0.6%
- Effect on cell apoptosis (in words) ([3]; PGE1 0.1 μM and 1 μM): suppressed cell apoptosis
- TUNEL-positive cells (%) ([3]; PGE1 0.1 μM): 13.80 ± 0.75%
- TUNEL-positive cells (%) ([3]; PGE1 1 μM): 8.10 ± 1.57%
- Decrease in blood pressure [4]: −55
- Effect on apoptosis in kidney cells (in words) (NRK52E cells [5]; NO donor GSNO): suppressed induction of apoptosis in kidney cells
- Incidence of apoptosis (%) (NRK52E cells [5]; Table 11, GSNO 1 mM, PGE1 1 μM, 24 hrs, n 5): 10 ± 2 %
- Incidence of apoptosis (%) (NRK52E cells [5]; Table 11, GSNO 1 mM, PGE1 10 μM, 24 hrs, n 5): 11 ± 3 %
- Incidence of apoptosis (%) (NRK52E cells [5]; Table 12, GSNO, PGE1 1 μM, n 3): 8 ± 2%
- Effect on SAPK/JNK activation (in words) (SAPK/JNK; 1 hr after NGF withdrawal): the activation was suppressed
- Degree of luminescence (SAPK/JNK; PGE1 0.1 μM): +
- Degree of luminescence (SAPK/JNK; PGE1 1 μM): ±
